Test results taken from patent US8778985B2, “Inhibiting amyloid-beta peptide/rage interaction at the blood-brain barrier” (The University of Rochester, priority 2006, dated 2014).

What was measured:
APPsw+/− mice [1] = assay: Thioflavin S-positive amyloid load in brain, chronic treatment of APPsw+/− mice; assay type: in vivo; conditions: 1 mg/kg per day i.p. for two months
Procedure: Amyloid load hippocampus and cortex of APPsw^+/− mice treated with vehicle (open bars) or FPS2 (closed bars). FPS2 (1 mg/kg per day), was administered intraperitoneally to mice for two months beginning at the age of 8 months. Values are means±s.e.m, n=5-6 per group.
(§1) In the chronic-treated mice, Aβ40 and Aβ42 levels in the hippocampus were reduced by about 85% and 90%, respectively, in the FPS2-treated mice compared to vehicle (FIG. 6A). Similarly, Aβ40 and Aβ42 levels in the cortex were reduced by about 70% and 80%, respectively (FIG. 6B).
Compounds were synthesized in parallel using semiautomated chemical reactions. […] Purity was assessed by reverse-phase gradient HPLC. […] After two months of treatment, (i) the cerebral blood flow response to brain activation (whisker stimulation) was measured and (ii) behavioral tests including operant learning, novel object location (NOL), and novel object recognition (NOR) were performed. After these functional tests, the mice were sacrificed and their brains analyzed for Aβ40, Aβ42, and amyloid levels. • CBF response to brain activation. The CBF response to vibrissal stimulation in anesthetized APPsw^+/− mice was measured by using laser-doppler flowmetry (Transonic Systems, BLF 21 D). […] The time exploring the novel and familiar objects was scored by hand to provide discrimination. • Human Aβ40 and Aβ42. […]

APPsw+/− mice [2] = assay: Human Aβ40 and Aβ42 levels in hippocampus and cortex by ELISA, chronic treatment of APPsw+/− mice; assay type: in vivo; conditions: 1 mg/kg per day i.p. for two months
Procedure: A-B, Aβ40 and Aβ42 levels in hippocampus (A) cortex (B) of APPsw^+/− mice treated with vehicle (filled square) or FPS2 (filled triangle). FPS2 (1 mg/kg per day) was administered intraperitoneally to mice for two months beginning at the age of 8 months. Values are means±s.e.m, n=5-6 per group.
as §1
Compounds were synthesized in parallel using semiautomated chemical reactions. Five commercially-available aromatic aldehydes were condensed in reductive amination reactions with five hydrophobic amines to form 25 secondary amines. Parallel acylation of these 25 secondary amines with five aromatic acyl chlorides provided the final 125-compound library of tertiary amides. The identity of compounds was verified by mass spectrometry (FIG. 9). Purity was assessed by reverse-phase gradient HPLC. Library members isolated with purity <95% were subjected to preparative HPLC purification prior to assay. • Animals. APPsw^+/− (Tg2576) mice were from Taconic Farms (Germantown, N.Y.). Mice were housed under standard conditions (12 hour light/dark cycle starting at 07:00 AM; 21±2° C.; 55±10% humidity) in solid-bottom cages on woodchip bedding. Mice were anesthetized by intraperitoneal injection with urethane (750 mg/kg) and α-chloralose (50 mg/kg). All procedures on mice were performed according to the NIH guidelines, which were approved by the University of Rochester's Committee on Animal Resources. • FPS2 chronic treatment of APPsw^+/− mice. APPsw^+/− mice (n=5-6 per group) were treated intraperitoneally with FPS2 (1 mg/kg per day) or saline for two months beginning at the age of 8 months. After two months of treatment, (i) the cerebral blood flow response to brain activation (whisker stimulation) was measured and (ii) behavioral tests including operant learning, novel object location (NOL), and novel object recognition (NOR) were performed. After these functional tests, the mice were sacrificed and their brains analyzed for Aβ40, Aβ42, and amyloid levels. • CBF response to brain activation. The CBF response to vibrissal stimulation in anesthetized APPsw^+/− mice was measured by using laser-doppler flowmetry (Transonic Systems, BLF 21 D). The tip of the laser-doppler probe was stereotaxically placed 0.5 mm above the dura of the cranial window. The right vibrissae were cut to about 5 mm and stimulated by gentle stroking at 3-4 Hz, for 1 min with a cotton-tip applicator. […] The time exploring the novel and familiar objects was scored by hand to provide discrimination. • Human Aβ40 and Aβ42. […]

RAGE = target: T1, RAGE (Homo sapiens, UniProt Q15109); assay: 125I-Aβ40 specific binding on RAGE-transfected CHO cells at 4° C., competitive inhibition
T1 construct: expressed in transfected cells; host or cells: Chinese hamster ovary (CHO) cells
From the text: Data are mean±s.e.m., n=3 per group.
All three are tertiary amides substituted with a large, hydrophobic hydrocarbon moiety and a monosubstituted aromatic moiety. Linkage to the monosubstituted aromatic is either direct (FPS2) or via an alkyl (FPS1) or heteroaromatic (FPS3) spacer. Two of the compounds also feature a highly electron-poor substituted benzene ring (3-nitro, 4-chloro for FPS1; 3,5-dinitro for FPS2).

[3] = system: RAGE-transfected CHO cells; assay: NF-κB activation (translocation) in RAGE-transfected CHO cells; assay type: cell-based; conditions: 1 μM Aβ40; FPS2 at 50 nM or 500 nM

T1 sequence (Q15109 23-404): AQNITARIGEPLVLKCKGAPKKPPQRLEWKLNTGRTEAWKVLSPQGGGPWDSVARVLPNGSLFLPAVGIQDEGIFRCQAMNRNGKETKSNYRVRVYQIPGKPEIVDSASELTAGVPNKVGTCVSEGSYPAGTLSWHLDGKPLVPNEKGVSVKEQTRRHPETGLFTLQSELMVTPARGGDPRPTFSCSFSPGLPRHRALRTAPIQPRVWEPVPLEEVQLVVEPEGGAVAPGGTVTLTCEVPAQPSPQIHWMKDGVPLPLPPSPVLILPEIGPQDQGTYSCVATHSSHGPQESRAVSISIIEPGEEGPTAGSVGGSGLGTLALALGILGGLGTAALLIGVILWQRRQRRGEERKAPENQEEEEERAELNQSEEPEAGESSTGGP

## CC(CC(=O)NCCCN(C(=O)c1cc([N+](=O)[O-])cc([N+](=O)[O-])c1)c1ccccc1)CC(C)(C)C (stereo not drawn) [FPS2, 3,5-dinitro-N-phenyl-N-[3-[(3,5,5-trimethyl-1-oxohexyl)amino]propyl]-(9Cl)-benzamide]
APPsw+/− mice [1]
  reduction of thioflavin-S positive areas (amyloid load) in the cortex compared to vehicle: about 85%
  reduction of thioflavin-S positive areas (amyloid load) in the hippocampus compared to vehicle: about 85%
APPsw+/− mice [2]
  reduction of Aβ40 level in the cortex compared to vehicle: about 70%
  reduction of Aβ40 level in the hippocampus compared to vehicle: about 85%
  reduction of Aβ42 level in the cortex compared to vehicle: ~80%
  reduction of Aβ42 level in the hippocampus compared to vehicle: ~90%
RAGE
  Ki/Kd ratio (Ki compound's inhibitory constant, Kd Aβ-RAGE binding constant): 0.45
RAGE; competitive
  inhibitory constant (Ki) of Aβ-RAGE binding: low
[3]
  NF-κB activation: inhibited
